Measured values taken from ChEMBL document CHEMBL3217491, “Design, synthesis and biological evaluation of imidazopyridine/pyrimidine-chalcone derivatives as potential anticancer agents” (2010).
The source made the active and inactive calls. No cut-off for these calls is given here.

Assays:
PC-3 = assay: Growth inhibition of human PC3 cells after 48 hrs by SRB assay; format: functional; conditions: PC-3, 48 h
DU-145 = assay: Growth inhibition of human DU145 cells after 48 hrs by SRB assay; format: functional; conditions: DU-145, 48 h
MCF7 [1] = assay: Growth inhibition of human MCF7 cells after 48 hrs by SRB assay; format: functional; conditions: MCF7, 48 h
MDA-MB-231 = assay: Growth inhibition of human MDA-MB-231 cells after 48 hrs by SRB assay; format: functional; conditions: MDA-MB-231, 48 h
[2] = Growth inhibition of human Hs578T cells after 48 hrs by SRB assay; format: functional; conditions: Hs-578T
[3] = Growth inhibition of human BT549 cells after 48 hrs by SRB assay; format: functional; conditions: BT-549, 48 h
T47D = assay: Growth inhibition of human T47D cells after 48 hrs by SRB assay; format: functional
MDA-MB-468 = assay: Growth inhibition of human MDA-MB-468 cells after 48 hrs by SRB assay; format: functional; conditions: MDA-MB-468, 48 h
[4] = Growth inhibition of human LOXIMVI cells after 48 hrs by SRB assay; format: functional; conditions: LOX IMVI
Malme-3M = assay: Growth inhibition of human MALME-3M cells after 48 hrs by SRB assay; format: functional
M14 = assay: Growth inhibition of human M14 cells after 48 hrs by SRB assay; format: functional; conditions: M14, 48 h
MDA-MB-435 = assay: Growth inhibition of human MDA-MB-435 cells after 48 hrs by SRB assay; format: functional; conditions: MDA-MB-435, 48 h
SK-MEL-2 = assay: Growth inhibition of human SK-MEL-2 cells after 48 hrs by SRB assay; format: functional; conditions: SK-MEL-2, 48 h
SK-MEL-28 = assay: Growth inhibition of human SK-MEL-28 cells after 48 hrs by SRB assay; format: functional; conditions: SK-MEL-28, 48 h
SK-MEL-5 = assay: Growth inhibition of human SK-MEL-5 cells after 48 hrs by SRB assay; format: functional; conditions: SK-MEL-5, 48 h
[5] = Growth inhibition of human UACC62 cells after 48 hrs by SRB assay; format: functional; conditions: UACC-62, 48 h
[6] = Growth inhibition of human UACC257 cells after 48 hrs by SRB assay; format: functional; conditions: UACC-257, 48 h
MCF7 [7] = assay: Growth inhibition of human MCF7 cells assessed as cell viability at 4 uM after 24 hrs by MTT assay; format: functional, cell-based
MCF7 [8] = assay: Cell cycle arrest in human MCF7 cells assessed as accumulation at G0/G1 phase at 4 uM after 24 hrs by propidium iodide staining-based flow cytometry (reference value: 64.04%); format: functional
MCF7 [9] = assay: Cell cycle arrest in human MCF7 cells assessed as accumulation at S phase at 4 uM after 24 hrs by propidium iodide staining-based flow cytometry (reference value: 20.17%); format: functional
MCF7 [10] = assay: Cell cycle arrest in human MCF7 cells assessed as accumulation at G2/M phase at 4 uM after 24 hrs by propidium iodide staining-based flow cytometry (reference value: 15.79%); format: functional
CCRF-CEM = assay: Growth inhibition of human CCRF-CEM cells after 48 hrs by SRB assay; format: functional
HL-60(TB) = assay: Growth inhibition of human HL-60(TB) cells after 48 hrs by SRB assay; format: functional; conditions: HL-60, 48 h
K562 = assay: Growth inhibition of human K562 cells after 48 hrs by SRB assay; format: functional; conditions: K562, 48 h
[11] = Growth inhibition of human MOLT4 cells after 48 hrs by SRB assay; format: functional; conditions: MOLT-4, 48 h
SR = assay: Growth inhibition of human SR cells after 48 hrs by SRB assay; format: functional
RPMI-8226 = assay: Growth inhibition of human RPMI8226 cells after 48 hrs by SRB assay; format: functional; conditions: RPMI-8226, 48 h
A549 = assay: Growth inhibition of human A549 cells after 48 hrs by SRB assay; format: functional; conditions: A549, 48 h
[12] = Growth inhibition of human EKVX cells after 48 hrs by SRB assay; format: functional
HOP-62 = assay: Growth inhibition of human HOP62 cells after 48 hrs by SRB assay; format: functional; conditions: HOP-62, 48 h
[13] = Growth inhibition of human HOP92 cells after 48 hrs by SRB assay; format: functional; conditions: HOP-92, 48 h
NCI-H226 = assay: Growth inhibition of human NCI-H226 cells after 48 hrs by SRB assay; format: functional; conditions: NCI-H226, 48 h
NCI-H23 = assay: Growth inhibition of human NCI-H23 cells after 48 hrs by SRB assay; format: functional; conditions: NCI-H23, 48 h
NCI-H322M = assay: Growth inhibition of human NCI-H322M cells after 48 hrs by SRB assay; format: functional
NCI-H460 = assay: Growth inhibition of human NCI-H460 cells after 48 hrs by SRB assay; format: functional; conditions: NCI-H460, 48 h
NCI-H522 = assay: Growth inhibition of human NCI-H522 cells after 48 hrs by SRB assay; format: functional; conditions: NCI-H522, 48 h
COLO 205 = assay: Growth inhibition of human COLO205 cells after 48 hrs by SRB assay; format: functional; conditions: COLO 205, 48 h
[14] = Growth inhibition of human HCC2998 cells after 48 hrs by SRB assay; format: functional; conditions: HCC 2998, 48 h
HCT-116 = assay: Growth inhibition of human HCT116 cells after 48 hrs by SRB assay; format: functional; conditions: HCT-116, 48 h
[15] = Growth inhibition of human HCT15 cells after 48 hrs by SRB assay; format: functional; conditions: HCT-15, 48 h
HT-29 = assay: Growth inhibition of human HT-29 cells after 48 hrs by SRB assay; format: functional; conditions: HT-29, 48 h
KM12 = assay: Growth inhibition of human KM12 cells after 48 hrs by SRB assay; format: functional; conditions: KM12, 48 h
SW-620 = assay: Growth inhibition of human SW620 cells after 48 hrs by SRB assay; format: functional; conditions: SW-620, 48 h
SF-268 = assay: Growth inhibition of human SF268 cells after 48 hrs by SRB assay; format: functional; conditions: SF-268, 48 h
[16] = Growth inhibition of human SF295 cells after 48 hrs by SRB assay; format: functional; conditions: SF-295, 48 h
[17] = Growth inhibition of human SF539 cells after 48 hrs by SRB assay; format: functional; conditions: SF-539, 48 h
SNB-19 = assay: Growth inhibition of human SNB19 cells after 48 hrs by SRB assay; format: functional; conditions: SNB-19, 48 h
SNB-75 = assay: Growth inhibition of human SNB75 cells after 48 hrs by SRB assay; format: functional; conditions: SNB-75, 48 h
U-251 = assay: Growth inhibition of human U251 cells after 48 hrs by SRB assay; format: functional; conditions: U-251, 48 h
IGROV-1 = assay: Growth inhibition of human IGROV1 cells after 48 hrs by SRB assay; format: functional; conditions: IGROV-1, 48 h
[18] = Growth inhibition of human OVCAR3 cells after 48 hrs by SRB assay; format: functional; conditions: OVCAR-3, 48 h
[19] = Growth inhibition of human OVCAR4 cells after 48 hrs by SRB assay; format: functional; conditions: OVCAR-4, 48 h
[20] = Growth inhibition of human OVCAR5 cells after 48 hrs by SRB assay; format: functional; conditions: OVCAR-5, 48 h
[21] = Growth inhibition of human OVCAR8 cells after 48 hrs by SRB assay; format: functional; conditions: OVCAR-8, 48 h
[22] = Growth inhibition of human NCI-ADR-RES cells after 48 hrs by SRB assay; format: functional
SK-OV-3 = assay: Growth inhibition of human SKOV3 cells after 48 hrs by SRB assay; format: functional; conditions: SK-OV-3, 48 h
786-0 = assay: Growth inhibition of human 786-0 cells after 48 hrs by SRB assay; format: functional; conditions: 786-0, 48 h
A498 = assay: Growth inhibition of human A498 cells after 48 hrs by SRB assay; format: functional; conditions: A498, 48 h
ACHN = assay: Growth inhibition of human ACHN cells after 48 hrs by SRB assay; format: functional
CAKI-1 = assay: Growth inhibition of human Caki1 cells after 48 hrs by SRB assay; format: functional; conditions: CAKI-1, 48 h
[23] = Growth inhibition of human RXF393 cells after 48 hrs by SRB assay; format: functional; conditions: RXF 393, 48 h
SN12C = assay: Growth inhibition of human SN12C cells after 48 hrs by SRB assay; format: functional
TK-10 = assay: Growth inhibition of human TK10 cells after 48 hrs by SRB assay; format: functional; conditions: TK-10, 48 h
[24] = Growth inhibition of human UO31 cells after 48 hrs by SRB assay; format: functional; conditions: UO-31, 48 h
MCF7 [25] = assay: Induction of apoptosis in human MCF7 cells expressing P21 promoter -145/+8 with luciferase gene assessed as upregulation of p21 protein expression at 4 uM by Western blot analysis relative to control; format: functional, cell-based

## COc1ccc(-c2nc3ccccn3c2/C=C/C(=O)c2cc(OC)c(OC)c(OC)c2)cc1
PC-3
  GI50: 19.8 µM
DU-145
  GI50: 7.21 µM
MCF7 [1]
  GI50: 2.38 µM
MDA-MB-231
  GI50: 5.22 µM
[2]
  GI50: 2.89 µM
[3]
  GI50: 3.27 µM
T47D
  GI50: 2.59 µM
MDA-MB-468
  GI50: 11.9 µM
[4]
  GI50: 6.05 µM
Malme-3M
  GI50: 1.56 µM
M14
  GI50: 9.8 µM
MDA-MB-435
  GI50: 5.76 µM
SK-MEL-2
  GI50: 4.95 µM
SK-MEL-28
  GI50: 7.1 µM
SK-MEL-5
  GI50: 2.72 µM
[5]
  GI50: 5.58 µM
[6]
  GI50: 5.85 µM
MCF7 [7]
  inhibition: Active
MCF7 [8]
  Activity: 85.55%
MCF7 [9]
  Activity: 11.65%
MCF7 [10]
  Activity: 2.8%
CCRF-CEM
  GI50: 18.8 µM
HL-60(TB)
  GI50: 34 µM
K562
  GI50: 13.1 µM
[11]
  GI50: 32.9 µM
SR
  GI50: 3.71 µM
RPMI-8226
  GI50: 7.5 µM
A549
  GI50: 7.96 µM
[12]
  GI50: 7.42 µM
HOP-62
  GI50: 3.62 µM
[13]
  GI50: 2.36 µM
NCI-H226
  GI50: 24.1 µM
NCI-H23
  GI50: 3.41 µM
NCI-H322M
  GI50: 4.63 µM
NCI-H460
  GI50: 4.09 µM
NCI-H522
  GI50: 3.12 µM
COLO 205
  GI50: 3.5 µM
[14]
  GI50: 8.27 µM
HCT-116
  GI50: 2.26 µM
[15]
  GI50: 4.85 µM
HT-29
  GI50: 4.8 µM
KM12
  GI50: 4.99 µM
SW-620
  GI50: 4.16 µM
SF-268
  GI50: 4 µM
[16]
  GI50: 15.2 µM
[17]
  GI50: 2.39 µM
SNB-19
  GI50: 25.2 µM
SNB-75
  GI50: 5.49 µM
U-251
  GI50: 3 µM
IGROV-1
  GI50: 8.86 µM
[18]
  GI50: 2.88 µM
[19]
  GI50: 5.72 µM
[20]
  GI50: 9.33 µM
[21]
  GI50: 3.92 µM
[22]
  GI50: 3.36 µM
SK-OV-3
  GI50: 14.8 µM
786-0
  GI50: 3.9 µM
A498
  GI50: 10.4 µM
ACHN
  GI50: 3.26 µM
CAKI-1
  GI50: 8.33 µM
[23]
  GI50: 2.94 µM
SN12C
  GI50: 11.4 µM
TK-10
  GI50: 4.16 µM
[24]
  GI50: 1.31 µM

## COc1cccc2c1C(=O)c1c(O)c3c(c(O)c1C2=O)C[C@@](O)(C(=O)CO)C[C@@H]3O[C@H]1C[C@H](N)[C@H](O)[C@H](C)O1 [DOXORUBICIN]
MCF7 [7]
  inhibition: Active
MCF7 [8]
  Activity: 94.85%
MCF7 [9]
  Activity: 4%
MCF7 [10]
  Activity: 1.15%
MCF7 [25]
  Activity: Active
